Laboratory results as given in the kinase profiling compilation of Christmann-Franck et al. (2016).

What was measured:
Assay in all cases: radiometric filter-binding kinase assay, Kinase HotSpot
Conditions in all cases: compound 0.5 µM; ATP 10 µM
TTK (human) = TTK (human) (UniProt P33981)
RPS6KA6 KD1 KD2 (human) = RPS6KA6 KD1 KD2 (human) (UniProt Q9UK32)
IKBKB (human) = IKBKB (human) (UniProt O14920)
PAK4 (human) = PAK4 (human) (UniProt O96013)
OXSR1 (human) = OXSR1 (human) (UniProt O95747)
MARK1 (human) = MARK1 (human) (UniProt Q9P0L2)
MAP3K5 (human) = MAP3K5 (human) (UniProt Q99683)
EPHB3 (human) = EPHB3 (human) (UniProt P54753)
Chain of EPHB3 (human) (P54753 whole entry, looked up): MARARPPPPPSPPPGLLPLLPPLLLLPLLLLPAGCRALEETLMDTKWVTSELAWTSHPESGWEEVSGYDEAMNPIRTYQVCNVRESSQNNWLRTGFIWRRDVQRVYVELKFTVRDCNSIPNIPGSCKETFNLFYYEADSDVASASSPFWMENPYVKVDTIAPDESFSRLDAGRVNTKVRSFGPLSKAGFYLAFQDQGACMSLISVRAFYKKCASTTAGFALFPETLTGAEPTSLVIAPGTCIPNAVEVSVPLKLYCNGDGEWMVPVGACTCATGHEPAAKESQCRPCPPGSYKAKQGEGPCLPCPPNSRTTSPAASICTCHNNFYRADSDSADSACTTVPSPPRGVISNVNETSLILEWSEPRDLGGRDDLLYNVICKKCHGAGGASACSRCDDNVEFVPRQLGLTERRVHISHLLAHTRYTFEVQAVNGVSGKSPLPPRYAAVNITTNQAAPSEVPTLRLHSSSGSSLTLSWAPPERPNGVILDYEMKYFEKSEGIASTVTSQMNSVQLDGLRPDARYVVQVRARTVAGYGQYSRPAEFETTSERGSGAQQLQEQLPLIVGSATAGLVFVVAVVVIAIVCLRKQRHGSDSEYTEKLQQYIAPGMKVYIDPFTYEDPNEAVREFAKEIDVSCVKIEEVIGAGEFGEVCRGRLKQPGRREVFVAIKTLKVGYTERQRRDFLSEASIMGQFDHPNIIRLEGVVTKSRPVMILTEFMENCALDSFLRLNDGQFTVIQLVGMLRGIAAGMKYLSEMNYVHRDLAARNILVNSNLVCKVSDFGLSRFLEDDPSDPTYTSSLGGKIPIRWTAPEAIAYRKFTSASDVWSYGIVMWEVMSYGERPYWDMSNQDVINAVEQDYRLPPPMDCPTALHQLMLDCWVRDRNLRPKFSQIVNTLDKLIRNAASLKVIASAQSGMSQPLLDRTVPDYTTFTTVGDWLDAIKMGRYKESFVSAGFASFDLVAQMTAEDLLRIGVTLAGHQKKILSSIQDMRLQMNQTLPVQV

CDK5 CDK5R1 p25 (human) = CDK5 CDK5R1 p25 (human) (UniProt Q00535+Q15078)
NEK3 (human) = NEK3 (human) (UniProt P51956)
STK24 (human) = STK24 (human) (UniProt Q9Y6E0)
EPHA8 (human) = EPHA8 (human) (UniProt P29322)
DAPK1 (human) = DAPK1 (human) (UniProt P53355)
AKT3 (human) = AKT3 (human) (UniProt Q9Y243)
CDK3 CCNE1 (human) = CDK3 CCNE1 (human) (UniProt Q00526+P24864)
MYLK (human) = MYLK (human) (UniProt Q15746)
CAMK1G (human) = CAMK1G (human) (UniProt Q96NX5)
NTRK3 (human) = NTRK3 (human) (UniProt Q16288)
VRK1 (human) = VRK1 (human) (UniProt Q99986)
PRKD2 (human) = PRKD2 (human) (UniProt Q9BZL6)
MERTK (human) = MERTK (human) (UniProt Q12866)
Chain of MERTK (human) (Q12866 whole entry, looked up): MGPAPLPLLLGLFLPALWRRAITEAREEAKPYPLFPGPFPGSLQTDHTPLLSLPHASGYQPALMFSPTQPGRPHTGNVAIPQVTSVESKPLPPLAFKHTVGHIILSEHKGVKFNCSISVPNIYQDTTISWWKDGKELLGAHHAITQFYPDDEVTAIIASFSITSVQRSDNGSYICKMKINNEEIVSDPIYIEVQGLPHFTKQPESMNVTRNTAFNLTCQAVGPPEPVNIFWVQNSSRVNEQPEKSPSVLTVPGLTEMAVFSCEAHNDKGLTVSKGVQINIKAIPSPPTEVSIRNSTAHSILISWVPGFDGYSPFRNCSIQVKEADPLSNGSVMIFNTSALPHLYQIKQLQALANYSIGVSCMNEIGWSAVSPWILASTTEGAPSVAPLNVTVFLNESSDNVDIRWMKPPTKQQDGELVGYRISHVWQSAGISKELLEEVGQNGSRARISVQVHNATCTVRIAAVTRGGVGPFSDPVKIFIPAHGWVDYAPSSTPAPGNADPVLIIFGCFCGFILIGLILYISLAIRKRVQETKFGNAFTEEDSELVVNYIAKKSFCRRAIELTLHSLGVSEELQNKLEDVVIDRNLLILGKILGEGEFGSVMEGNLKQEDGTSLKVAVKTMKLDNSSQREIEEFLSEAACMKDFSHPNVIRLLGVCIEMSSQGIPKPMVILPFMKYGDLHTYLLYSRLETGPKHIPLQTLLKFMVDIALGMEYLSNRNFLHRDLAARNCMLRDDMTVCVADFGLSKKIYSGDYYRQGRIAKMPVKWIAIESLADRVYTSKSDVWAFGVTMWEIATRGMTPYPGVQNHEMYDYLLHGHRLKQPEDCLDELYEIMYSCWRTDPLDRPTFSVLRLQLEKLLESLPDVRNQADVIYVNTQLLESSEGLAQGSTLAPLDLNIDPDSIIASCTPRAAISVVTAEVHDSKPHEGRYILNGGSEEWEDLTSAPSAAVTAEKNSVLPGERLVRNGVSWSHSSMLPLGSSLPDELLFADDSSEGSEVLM

[1] = system: SGK1 (human), O00141 [S422D]
RIPK2 (human) = RIPK2 (human) (UniProt O43353)
PRKCD (human) = PRKCD (human) (UniProt Q05655)
CDK7 CCNH MNAT1 (human) = CDK7 CCNH MNAT1 (human) (UniProt P50613+P51948+P51946)
Chain of CDK7 CCNH MNAT1 (human) (P50613 whole entry, looked up): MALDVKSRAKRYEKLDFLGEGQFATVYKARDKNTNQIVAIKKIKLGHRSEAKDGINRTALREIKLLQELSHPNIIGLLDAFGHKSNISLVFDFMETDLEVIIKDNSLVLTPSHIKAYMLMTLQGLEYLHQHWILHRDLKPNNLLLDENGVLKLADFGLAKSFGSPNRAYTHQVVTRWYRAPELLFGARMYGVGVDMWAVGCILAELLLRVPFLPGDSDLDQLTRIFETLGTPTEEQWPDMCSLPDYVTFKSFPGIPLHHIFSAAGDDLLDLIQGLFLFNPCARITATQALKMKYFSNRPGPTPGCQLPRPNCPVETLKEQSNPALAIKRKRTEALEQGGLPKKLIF
Chain of CDK7 CCNH MNAT1 (human) (P51946 whole entry, looked up): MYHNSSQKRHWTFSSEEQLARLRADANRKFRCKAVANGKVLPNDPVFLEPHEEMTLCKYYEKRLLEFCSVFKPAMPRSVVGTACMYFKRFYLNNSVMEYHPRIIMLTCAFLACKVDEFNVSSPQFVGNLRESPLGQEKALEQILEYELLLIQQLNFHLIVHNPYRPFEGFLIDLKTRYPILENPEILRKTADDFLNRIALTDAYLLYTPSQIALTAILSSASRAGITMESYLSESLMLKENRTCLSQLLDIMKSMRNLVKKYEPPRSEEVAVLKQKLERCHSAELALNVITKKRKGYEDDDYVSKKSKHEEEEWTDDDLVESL
Chain of CDK7 CCNH MNAT1 (human) (P51948 whole entry, looked up): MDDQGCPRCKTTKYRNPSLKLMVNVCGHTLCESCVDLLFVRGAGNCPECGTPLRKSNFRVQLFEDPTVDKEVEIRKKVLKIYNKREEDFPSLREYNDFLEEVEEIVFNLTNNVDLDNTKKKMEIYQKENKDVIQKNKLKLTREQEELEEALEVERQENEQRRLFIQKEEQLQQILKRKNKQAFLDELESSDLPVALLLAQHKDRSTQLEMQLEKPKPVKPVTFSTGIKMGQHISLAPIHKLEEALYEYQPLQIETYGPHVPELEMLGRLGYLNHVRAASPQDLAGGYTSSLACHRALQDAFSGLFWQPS

ERBB2 (human) = ERBB2 (human) (UniProt P04626)
CDK9 CCNT1 (human) = CDK9 CCNT1 (human) (UniProt P50750+O60563)
ABL1 (human) = ABL1 (human) (UniProt P00519)
SLK (human) = SLK (human) (UniProt Q9H2G2)
RPS6KB1 (human) = RPS6KB1 (human) (UniProt P23443)
MAPK13 (human) = MAPK13 (human) (UniProt O15264)
MAP4K2 (human) = MAP4K2 (human) (UniProt Q12851)
ALK (human) = ALK (human) (UniProt Q9UM73)
HCK (human) = HCK (human) (UniProt P08631)
Chain of HCK (human) (P08631 whole entry, looked up): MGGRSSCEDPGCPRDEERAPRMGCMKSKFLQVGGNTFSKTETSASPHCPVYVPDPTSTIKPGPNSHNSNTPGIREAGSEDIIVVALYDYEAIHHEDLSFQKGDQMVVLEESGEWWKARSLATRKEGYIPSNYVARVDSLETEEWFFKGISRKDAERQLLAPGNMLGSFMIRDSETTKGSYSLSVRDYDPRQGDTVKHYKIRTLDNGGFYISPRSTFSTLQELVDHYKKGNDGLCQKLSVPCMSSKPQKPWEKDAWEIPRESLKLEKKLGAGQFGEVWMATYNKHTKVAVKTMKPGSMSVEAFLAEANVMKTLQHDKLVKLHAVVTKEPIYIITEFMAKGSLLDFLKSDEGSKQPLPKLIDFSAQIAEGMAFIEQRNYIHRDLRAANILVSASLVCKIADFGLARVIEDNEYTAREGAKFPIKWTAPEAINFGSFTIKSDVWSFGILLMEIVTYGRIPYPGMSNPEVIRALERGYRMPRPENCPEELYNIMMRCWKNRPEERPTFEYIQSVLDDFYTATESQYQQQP

MUSK (human) = MUSK (human) (UniProt O15146)
MAP3K3 (human) = MAP3K3 (human) (UniProt Q99759)
PRKCA (human) = PRKCA (human) (UniProt P17252)
CSF1R (human) = CSF1R (human) (UniProt P07333)
HIPK2 (human) = HIPK2 (human) (UniProt Q9H2X6)
SRC (human) = SRC (human) (UniProt P12931)
GRK7 (human) = GRK7 (human) (UniProt Q8WTQ7)
Chain of GRK7 (human) (Q8WTQ7 whole entry, looked up): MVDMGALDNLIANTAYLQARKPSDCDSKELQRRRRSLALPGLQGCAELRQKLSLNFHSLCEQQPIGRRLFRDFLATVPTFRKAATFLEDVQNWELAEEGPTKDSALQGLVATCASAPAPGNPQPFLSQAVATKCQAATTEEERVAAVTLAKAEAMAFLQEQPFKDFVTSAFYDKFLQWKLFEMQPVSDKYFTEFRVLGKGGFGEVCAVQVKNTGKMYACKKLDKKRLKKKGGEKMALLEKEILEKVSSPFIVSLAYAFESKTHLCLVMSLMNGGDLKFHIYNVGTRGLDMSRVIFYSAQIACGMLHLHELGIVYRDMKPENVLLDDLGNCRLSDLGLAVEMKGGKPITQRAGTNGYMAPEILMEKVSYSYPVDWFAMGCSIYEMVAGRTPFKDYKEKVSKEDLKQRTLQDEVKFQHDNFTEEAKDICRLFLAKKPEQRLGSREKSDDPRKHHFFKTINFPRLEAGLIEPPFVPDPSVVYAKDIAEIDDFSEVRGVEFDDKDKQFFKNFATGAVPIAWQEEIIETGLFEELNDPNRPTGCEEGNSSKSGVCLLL

Chain of RPS6KA6 KD1 KD2 (human) (Q9UK32 whole entry, looked up): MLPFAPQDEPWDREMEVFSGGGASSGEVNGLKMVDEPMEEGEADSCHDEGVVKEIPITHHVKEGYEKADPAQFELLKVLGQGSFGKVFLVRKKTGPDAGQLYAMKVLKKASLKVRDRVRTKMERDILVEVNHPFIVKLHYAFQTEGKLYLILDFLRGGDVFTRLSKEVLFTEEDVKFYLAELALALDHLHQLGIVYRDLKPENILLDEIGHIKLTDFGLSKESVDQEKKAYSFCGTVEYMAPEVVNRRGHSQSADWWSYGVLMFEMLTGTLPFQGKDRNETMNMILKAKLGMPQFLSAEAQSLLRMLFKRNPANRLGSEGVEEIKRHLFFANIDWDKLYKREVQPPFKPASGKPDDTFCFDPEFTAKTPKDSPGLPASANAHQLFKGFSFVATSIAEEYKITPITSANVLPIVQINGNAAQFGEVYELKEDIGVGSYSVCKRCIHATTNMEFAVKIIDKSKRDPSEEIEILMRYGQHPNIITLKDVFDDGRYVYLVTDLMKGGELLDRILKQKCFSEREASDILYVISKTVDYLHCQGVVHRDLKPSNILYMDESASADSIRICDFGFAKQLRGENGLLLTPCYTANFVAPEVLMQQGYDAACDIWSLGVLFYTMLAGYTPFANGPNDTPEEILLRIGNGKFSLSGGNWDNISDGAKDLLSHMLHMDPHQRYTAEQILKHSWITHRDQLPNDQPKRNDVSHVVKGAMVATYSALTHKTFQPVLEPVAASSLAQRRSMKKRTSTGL

O=c1c(-c2ccc(F)cc2)c(-c2ccncc2)[nH]n1-c1ccc(Cl)cc1
residual activity (TTK (human)): 110% | residual activity (RPS6KA6 KD1 KD2 (human)): 90.3% | residual activity (IKBKB (human)): 102% | residual activity (PAK4 (human)): 82% | residual activity (OXSR1 (human)): 83.3% | residual activity (MARK1 (human)): 94.5% | residual activity (MAP3K5 (human)): 115% | residual activity (EPHB3 (human)): 92.2% | residual activity (CDK5 CDK5R1 p25 (human)): 76.3% | residual activity (NEK3 (human)): 100% | residual activity (STK24 (human)): 111% | residual activity (EPHA8 (human)): 94.4% | residual activity (DAPK1 (human)): 84.5% | residual activity (AKT3 (human)): 94.3% | residual activity (CDK3 CCNE1 (human)): 86.9% | residual activity (MYLK (human)): 101% | residual activity (CAMK1G (human)): 104% | residual activity (NTRK3 (human)): 99.2% | residual activity (VRK1 (human)): 92.9% | residual activity (PRKD2 (human)): 73.4% | residual activity (MERTK (human)): 82.7% | residual activity [1]: 97.3% | residual activity (RIPK2 (human)): 50.2% | residual activity (PRKCD (human)): 92.6% | residual activity (CDK7 CCNH MNAT1 (human)): 97.4% | residual activity (ERBB2 (human)): 103% | residual activity (CDK9 CCNT1 (human)): 101% | residual activity (ABL1 (human)): 98.1% | residual activity (SLK (human)): 98.2% | residual activity (RPS6KB1 (human)): 89.9% | residual activity (MAPK13 (human)): 102% | residual activity (MAP4K2 (human)): 87.7% | residual activity (ALK (human)): 83.8% | residual activity (HCK (human)): 91.1% | residual activity (MUSK (human)): 102% | residual activity (MAP3K3 (human)): 96.2% | residual activity (PRKCA (human)): 100% | residual activity (CSF1R (human)): 102% | residual activity (HIPK2 (human)): 89% | residual activity (SRC (human)): 91.6%

N#Cc1c(NC(=O)c2cccc3ccccc23)sc2c1CCCC2
residual activity (TTK (human)): 85.5% | residual activity (RPS6KA6 KD1 KD2 (human)): 101% | residual activity (IKBKB (human)): 97% | residual activity (PAK4 (human)): 95.2% | residual activity (OXSR1 (human)): 103% | residual activity (MARK1 (human)): 100% | residual activity (MAP3K5 (human)): 99% | residual activity (EPHB3 (human)): 95.9% | residual activity (CDK5 CDK5R1 p25 (human)): 100% | residual activity (NEK3 (human)): 93.2% | residual activity (STK24 (human)): 90.3% | residual activity (EPHA8 (human)): 104% | residual activity (DAPK1 (human)): 109% | residual activity (AKT3 (human)): 99.6% | residual activity (CDK3 CCNE1 (human)): 99.2% | residual activity (MYLK (human)): 98.7% | residual activity (CAMK1G (human)): 97.7% | residual activity (VRK1 (human)): 87.2% | residual activity (GRK7 (human)): 116% | residual activity (PRKD2 (human)): 126% | residual activity (MERTK (human)): 97.9% | residual activity [1]: 108% | residual activity (RIPK2 (human)): 81.3% | residual activity (PRKCD (human)): 94.1% | residual activity (CDK7 CCNH MNAT1 (human)): 101% | residual activity (ERBB2 (human)): 97.6% | residual activity (CDK9 CCNT1 (human)): 100% | residual activity (ABL1 (human)): 103% | residual activity (SLK (human)): 99.2% | residual activity (RPS6KB1 (human)): 105% | residual activity (MAPK13 (human)): 109% | residual activity (MAP4K2 (human)): 86.1% | residual activity (ALK (human)): 96.4% | residual activity (HCK (human)): 96.5% | residual activity (MUSK (human)): 94.8% | residual activity (MAP3K3 (human)): 99.8% | residual activity (PRKCA (human)): 99.5% | residual activity (CSF1R (human)): 97.2% | residual activity (SRC (human)): 93.5%

N#C/C(=C1/Nc2ccccc2S1)c1ccnc(NCCc2cccnc2)n1
residual activity (TTK (human)): 80.9% | residual activity (RPS6KA6 KD1 KD2 (human)): 87% | residual activity (PAK4 (human)): 91.3% | residual activity (OXSR1 (human)): 99% | residual activity (MARK1 (human)): 97.6% | residual activity (MAP3K5 (human)): 102% | residual activity (EPHB3 (human)): 91% | residual activity (CDK5 CDK5R1 p25 (human)): 90% | residual activity (NEK3 (human)): 87.9% | residual activity (STK24 (human)): 95.6% | residual activity (EPHA8 (human)): 98.5% | residual activity (DAPK1 (human)): 99.3% | residual activity (AKT3 (human)): 105% | residual activity (CDK3 CCNE1 (human)): 92.3% | residual activity (MYLK (human)): 97.9% | residual activity (CAMK1G (human)): 92.3% | residual activity (NTRK3 (human)): 80.2% | residual activity (VRK1 (human)): 94.1% | residual activity (GRK7 (human)): 113% | residual activity (PRKD2 (human)): 79.2% | residual activity (MERTK (human)): 88.9% | residual activity [1]: 100% | residual activity (PRKCD (human)): 92.2% | residual activity (CDK7 CCNH MNAT1 (human)): 93.2% | residual activity (ERBB2 (human)): 104% | residual activity (CDK9 CCNT1 (human)): 23.3% | residual activity (ABL1 (human)): 96.3% | residual activity (SLK (human)): 87.7% | residual activity (RPS6KB1 (human)): 98.2% | residual activity (MAPK13 (human)): 100% | residual activity (MAP4K2 (human)): 76.9% | residual activity (ALK (human)): 85.2% | residual activity (HCK (human)): 92.2% | residual activity (MUSK (human)): 14.8% | residual activity (MAP3K3 (human)): 94.7% | residual activity (PRKCA (human)): 94.3% | residual activity (CSF1R (human)): 99.2% | residual activity (HIPK2 (human)): 95.8% | residual activity (SRC (human)): 86.8%

O=c1cc(N2CCOCC2)oc2c(-c3ccccc3)cccc12
residual activity (TTK (human)): 103% | residual activity (IKBKB (human)): 100% | residual activity (PAK4 (human)): 92.8% | residual activity (OXSR1 (human)): 118% | residual activity (MARK1 (human)): 100% | residual activity (MAP3K5 (human)): 96.2% | residual activity (EPHB3 (human)): 94.6% | residual activity (CDK5 CDK5R1 p25 (human)): 86.7% | residual activity (NEK3 (human)): 102% | residual activity (STK24 (human)): 97.1% | residual activity (EPHA8 (human)): 103% | residual activity (DAPK1 (human)): 90.1% | residual activity (AKT3 (human)): 102% | residual activity (CDK3 CCNE1 (human)): 89.6% | residual activity (MYLK (human)): 97.8% | residual activity (CAMK1G (human)): 93.8% | residual activity (NTRK3 (human)): 95.9% | residual activity (VRK1 (human)): 85.4% | residual activity (GRK7 (human)): 112% | residual activity (PRKD2 (human)): 93.8% | residual activity (MERTK (human)): 95.2% | residual activity [1]: 101% | residual activity (RIPK2 (human)): 89.9% | residual activity (PRKCD (human)): 96% | residual activity (CDK7 CCNH MNAT1 (human)): 95.4% | residual activity (ERBB2 (human)): 104% | residual activity (CDK9 CCNT1 (human)): 103% | residual activity (ABL1 (human)): 99.2% | residual activity (SLK (human)): 102% | residual activity (RPS6KB1 (human)): 101% | residual activity (MAPK13 (human)): 93.3% | residual activity (MAP4K2 (human)): 87.8% | residual activity (ALK (human)): 92.4% | residual activity (HCK (human)): 98.3% | residual activity (MUSK (human)): 102% | residual activity (MAP3K3 (human)): 93.4% | residual activity (PRKCA (human)): 97.5% | residual activity (CSF1R (human)): 98.3% | residual activity (HIPK2 (human)): 122% | residual activity (SRC (human)): 96.3%

Nc1ncnc2c1cnn2-c1ccccc1
residual activity (TTK (human)): 90.6% | residual activity (RPS6KA6 KD1 KD2 (human)): 94.1% | residual activity (IKBKB (human)): 97.3% | residual activity (PAK4 (human)): 86.5% | residual activity (OXSR1 (human)): 92.6% | residual activity (MARK1 (human)): 94.8% | residual activity (MAP3K5 (human)): 100% | residual activity (EPHB3 (human)): 93.5% | residual activity (CDK5 CDK5R1 p25 (human)): 102% | residual activity (NEK3 (human)): 93.5% | residual activity (STK24 (human)): 96.3% | residual activity (EPHA8 (human)): 90.5% | residual activity (DAPK1 (human)): 98.5% | residual activity (AKT3 (human)): 102% | residual activity (CDK3 CCNE1 (human)): 96.2% | residual activity (MYLK (human)): 99.7% | residual activity (CAMK1G (human)): 102% | residual activity (NTRK3 (human)): 93.6% | residual activity (VRK1 (human)): 84.4% | residual activity (GRK7 (human)): 100% | residual activity (PRKD2 (human)): 126% | residual activity (MERTK (human)): 94.3% | residual activity [1]: 90.9% | residual activity (RIPK2 (human)): 93.1% | residual activity (PRKCD (human)): 93% | residual activity (CDK7 CCNH MNAT1 (human)): 102% | residual activity (ERBB2 (human)): 107% | residual activity (CDK9 CCNT1 (human)): 109% | residual activity (ABL1 (human)): 99.4% | residual activity (SLK (human)): 98% | residual activity (RPS6KB1 (human)): 103% | residual activity (MAP4K2 (human)): 94.9% | residual activity (ALK (human)): 90.9% | residual activity (HCK (human)): 92.4% | residual activity (MUSK (human)): 88% | residual activity (MAP3K3 (human)): 95.5% | residual activity (PRKCA (human)): 103% | residual activity (CSF1R (human)): 105% | residual activity (HIPK2 (human)): 103% | residual activity (SRC (human)): 96.9%
